Measured values from patent publication US20260234139A1, “PGDH INHIBITORS AND METHODS OF MAKING AND USING” (Epirium Bio Inc., priority 2023, published 2026).

Assays:
[1] = target: T1, 15-PGDH/HPGD (Homo sapiens, UniProt P15428); test: hPGDH inhibitor screening biochemical assay; details: 10 nM enzyme, 15 μM Prostaglandin E2, 0.25 mM NAD, fluorescence ex/em 340/485 nm
T1 construct: purchased R&D System 5660-DH
T1 sequence (P15428 1-266): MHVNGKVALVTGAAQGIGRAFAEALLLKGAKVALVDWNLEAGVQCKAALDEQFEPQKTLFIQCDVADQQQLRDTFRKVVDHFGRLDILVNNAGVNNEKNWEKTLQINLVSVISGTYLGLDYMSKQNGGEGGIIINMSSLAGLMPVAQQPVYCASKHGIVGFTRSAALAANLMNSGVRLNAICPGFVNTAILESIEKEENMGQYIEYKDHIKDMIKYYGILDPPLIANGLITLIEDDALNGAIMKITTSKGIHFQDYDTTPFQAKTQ
How it was run: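 Recombinant 15-PGDH (10 nM) preincubated with compound 10 min at 37° C, then 15 μM PGE2 and 0.25 mM NAD⁺ added for 10 min at room temperature in 50 mM Tris-HCl pH 7.5, 0.01% Tween 20. NADH fluorescence at ex/em 340/485 nm; 10-point dose response.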

[2] = system: A549; test: A549 EC50 (cell assay, method not described); type: cell-based; details: Homo sapiens, A549, A549

| Compound | IC50 [1] [nM] | EC50 [2] [nM] |
| --- | --- | --- |
| Cc1cc(-n2ncc3cc([C@@H](O)COC4CCC4)cnc32)ccc1C(=O)O [Compound 95A] | < 100 | < 100 |
| CC(C)OC[C@@H](O)c1cnc2c(cnn2-c2ccc(CC(=O)O)cc2)c1 [Compound 71A] | 100 to 1000 | 100 to 1000 |
| CC(C)OCC(O)c1cnc2c(cnn2-c2cccc(-c3nnc[nH]3)c2)c1 (single isomer, unassigned) [Compound 18B] | < 100 | 100 to 1000 |
| C[S+]([O-])c1cccc(-n2ncc3cc([C@H](O)COC4CCC4)cnc32)c1 (stereo partly drawn) [Compound 125B] | ≥ 1000 | ≥ 1000 |
| COC1([C@H](O)c2cnc3c(cnn3-c3cccc(-c4nnc[nH]4)c3)c2)CC1 [Compound 59B] | 100 to 1000 | ≥ 1000 |
| O=C(O)c1ccc(-n2ncc3cc(C(O)C4CC(F)(F)C4)cnc32)cc1 (stereo in doubt) [Compound 45B, (S)-4-(5-((3,3-difluorocyclobutyl)(hydroxy)methyl)-1H-pyrazolo[3,4-b]pyridin-1-yl)benzoic acid] | < 100 | < 100 |
| CNC(=O)c1ccc(-n2ncc3cc([C@H](O)COC(C)C)cnc32)cc1 [Compound 67A] | < 100 | < 100 |
| O=C(O)c1ccc(-n2ncc3cc([C@@H](O)COC4CCC4)cnc32)cc1 [Compound 42A, (R)-4-(5-(2-cyclobutoxy-1-hydroxyethyl)-1H-pyrazolo[3,4-b]pyridin-1-yl)benzoic acid] | < 100 | ≥ 1000 |
| NC(=O)c1ccc(-n2ncc3cc([C@@H](O)COC4CCC4)cnc32)cc1 [Compound 81B] | < 100 | 100 to 1000 |
| O=C(O)c1ccc(-n2ncc3cc([C@@H](O)COC4CCC4)cnc32)cn1 [Compound 96B] | < 100 | 100 to 1000 |
| O=C(O)c1ccc(-n2ncc3cc([C@H](O)COC4CCC4)cnc32)cn1 [Compound 96A] | < 100 | ≥ 1000 |
| CNC(=O)c1ccc(-n2ncc3cc([C@@H](O)COC(C)C)cnc32)cc1 [Compound 67B] | < 100 | 100 to 1000 |
| CC(C)OC[C@@H](O)c1cnc2c(cnn2-c2ccc(OCC(=O)O)c(F)c2)c1 [Compound 74A] | < 100 | 100 to 1000 |
| CCCCC(OC)c1cnc2c(ccn2-c2cc(Cl)cc(-c3nnc[nH]3)c2)c1 (stereo not drawn) [Compound 16] | 100 to 1000 | 100 to 1000 |
| C[S+]([O-])c1ccc(-n2ncc3cc([C@H](O)COC4CCC4)cnc32)cc1 (stereo partly drawn) [Compound 124B] | ≥ 1000 | ≥ 1000 |
| CCCC[C@@H](O)c1cnc2c(ccn2-c2cc(Cl)cc(-c3nnc[nH]3)c2)c1 [Compound 17A] | < 100 | < 100 |
| COC(C)(C)CC[C@H](O)c1cnc2c(cnn2-c2cccc(-c3nnc[nH]3)c2)c1 [Compound 55A] | < 100 | 100 to 1000 |
| CC(C)C[C@H](O)[C@H](O)c1cnc2c(ccn2-c2cccc(-c3nnc[nH]3)c2)c1 [Compound 3C, (1R,2S)-4-methyl-1-[1-[3-(4H-1,2,4-triazol-3-yl)phenyl]pyrrolo[2,3-b]pyridin-5-yl]pentane-1,2-diol] | < 100 | 100 to 1000 |
| COC(C)(C)C[C@H](O)c1cnc2c(cnn2-c2cccc(-c3nnc[nH]3)c2)c1 [Compound 54B] | < 100 | 100 to 1000 |
| O[C@@H](c1cnc2c(cnn2-c2cccc(-c3nnc[nH]3)c2)c1)C1C2CCCCC21 (stereo partly drawn) [Compound 51B] | 100 to 1000 | 100 to 1000 |
| O=C(O)c1ccc(-n2ncc3cc([C@H](O)COCC4CC4)ccc32)cc1 [Compound 114B] | < 100 | 100 to 1000 |
| O=C(O)c1ccc(-n2ncc3cc([C@H](O)COC4CCC4)cnc32)cc1 [Compound 42B] | < 100 | < 100 |
| CNC(=O)c1cccc(-n2ncc3cc([C@H](O)COC4CCC4)cnc32)c1 [Compound 110B] | ≥ 1000 | ≥ 1000 |

| Compound | IC50 [1] [nM] | EC50 [2] [nM] |
| --- | --- | --- |
| O=C(O)c1ccc(-n2ncc3cc([C@@H](O)COCC4CC4)cnc32)cc1 [Compound 107A] | < 100 | < 100 |
| CC(C)OC[C@@H](O)c1cnc2c(cnn2-c2ccc(CCC(=O)O)cc2)c1 [Compound 69A] | < 100 | < 100 |
| CCCC(F)(F)[C@@H](O)c1cnc2c(ccn2-c2cccc(-c3nnc[nH]3)c2)n1 [Compound 35A] | < 100 | < 100 |
| CCOC1([C@@H](O)c2cnc3c(cnn3-c3ccc(C(=O)O)cc3)c2)CCC1 [Compound 85B] | ≥ 1000 | ≥ 1000 |
| CC(C)CC[C@H](O)c1cnc2c(ccn2-c2ccc(C(=O)O)cc2)n1 [Compound 40A] | < 100 | < 100 |
| O=C(O)[C@H]1CCN(c2ccc(-n3ncc4cc([C@@H](O)COC5CCC5)cnc43)cc2)C1 [Compound 87A] | < 100 | ≥ 1000 |
| CCCC[C@H](O)c1cnc2c(ccn2-c2cc(Cl)cc(-c3nnc[nH]3)c2)c1 [Compound 17B] | < 100 | < 100 |
| CC(C)OC[C@@H](O)c1cnc2c(cnn2-c2ccc3nc(N4CCOCC4)nn3c2)c1 [Compound 60A] | < 100 | < 100 |
| O[C@@H](c1cnc2c(cnn2-c2cccc(-c3nnc[nH]3)c2)c1)C1CC2CC2C1 (stereo partly drawn) [Compound 50A] | < 100 | < 100 |
| CC(C)(O)[C@H](O)c1cnc2c(cnn2-c2cccc(-c3nnc[nH]3)c2)c1 [Compound 33A, (R)-1-(1-(3-(4H-1,2,4-triazol-3-yl)phenyl)-1H-pyrazolo[3,4-b]pyridin-5-yl)-2-methylpropane-1,2-diol] | 100 to 1000 | ≥ 1000 |
| O[C@H](COC1CCC1)c1cnc2c(cnn2-c2ccc(-c3nnn[nH]3)cc2)c1 [Compound 79A] | < 100 | 100 to 1000 |
| CC(C)NC[C@H](O)c1cnc2c(ccn2-c2cccc(-c3nnc[nH]3)c2)n1 [Compound 22A] | ≥ 1000 | ≥ 1000 |
| CC(C)(C)OC[C@@H](O)c1cnc2c(ccn2-c2cccc(-c3nnc[nH]3)c2)n1 [Compound 26B] | < 100 | < 100 |
| CS(=O)(=O)c1ccc(-n2ncc3cc([C@H](O)COC4CCC4)cnc32)cc1 [Compound 121B] | ≥ 1000 | ≥ 1000 |
| CN(C)C[C@H](O)c1cnc2c(cnn2-c2cccc(-c3nnc[nH]3)c2)c1 [Compound 25A] | 100 to 1000 | ≥ 1000 |
| CC1(COC[C@H](O)c2cnc3c(cnn3-c3ccc(C(=O)O)cc3)c2)CC1 [Compound 106A] | < 100 | < 100 |
| CC1(C)CC(OC[C@H](O)c2cnc3c(cnn3-c3ccc(C(=O)O)nc3)c2)C1 [Compound 116A] | 100 to 1000 | ≥ 1000 |
| Cc1nn(-c2ccc(C(=O)O)cc2)c2ncc([C@@H](O)COC3CC3)cc12 [Compound 126A] | < 100 | 100 to 1000 |
| O[C@H](c1cnc2c(cnn2-c2cccc(-c3nnc[nH]3)c2)c1)C1C2CCCCC21 (stereo partly drawn) [Compound 51A] | < 100 | 100 to 1000 |
| CN(C)C(=O)c1cccc(-n2ncc3cc([C@H](O)COC4CCC4)cnc32)c1 [Compound 111B] | ≥ 1000 | ≥ 1000 |
| C[C@@H](OC1CCC1)[C@@H](O)c1cnc2c(cnn2-c2ccc(C(=O)O)cc2)c1 [Compound 108B] | 100 to 1000 | 100 to 1000 |
| O[C@@H](COC1CCC1)c1cnc2c(cnn2-c2cccc(-c3nnc[nH]3)c2)c1 [Compound 24A] | < 100 | 100 to 1000 |
